Assay results from ChEMBL document CHEMBL1201862, “PubChem BioAssay data set” (2004).
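1) Cells in 96-well plates. 2) Compound, 48 h, 5 concentrations. 3) Linear interpolation between surrounding doses. 4) Unreached endpoint = highest concentration. At the GI50, growth is halved.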 Activity calls are given as the source filed them. Rule as the data show it: active = GI50 up to about 1.1 µM and inactive = higher.

Assays:
Assay in all cases: NCI tumour cell line growth inhibition, 48 h
[1] = test system: SK-OV-3
[2] = test system: SN12C
[3] = test system: SW-620
[4] = test system: RPMI-8226
[5] = test system: SNB-75
[6] = test system: U-251
[7] = test system: LOX IMVI
[8] = test system: HT-29
[9] = test system: M14
[10] = test system: ACHN
[11] = test system: SK-MEL-2
[12] = test system: OVCAR-8
[13] = test system: MOLT-4
[14] = test system: OVCAR-4
[15] = test system: NCI-H522
[16] = test system: OVCAR-3
[17] = test system: UACC-62
[18] = test system: HOP-92

Measured: GI50

CCCCCCCCCCCOc1ccc(C(=O)C(=O)c2ccc(OCCCCCCCCCCC)c(OCCCCCCCCCCC)c2)cc1OCCCCCCCCCCC
inactive: [1] > 100 µM | [2] > 100 µM | [3] > 100 µM | [4] > 100 µM | [5] 31.3 µM | [6] > 100 µM | [7] > 100 µM | [8] > 100 µM | [9] > 100 µM | [10] > 100 µM | [11] > 100 µM | [12] > 100 µM | [13] 80.7 µM | [14] > 100 µM | [15] > 100 µM | [16] > 100 µM | [17] > 100 µM

CC(=O)OC1CCC2OOC1O2 (configuration not stated)
inactive: [1] > 100 µM | [2] > 100 µM | [3] > 100 µM | [4] > 100 µM | [5] > 100 µM | [6] > 100 µM | [7] > 100 µM | [8] > 100 µM | [9] > 100 µM | [10] > 100 µM | [11] > 100 µM | [12] > 100 µM | [13] > 100 µM | [14] > 100 µM | [15] > 100 µM | [16] > 100 µM | [17] > 100 µM

CC(CCC(=O)O)c1ccc(Br)cc1 (configuration not stated)
inactive: [1] > 100 µM | [2] > 100 µM | [3] > 100 µM | [4] > 100 µM | [5] > 100 µM | [6] > 100 µM | [7] > 100 µM | [8] > 100 µM | [9] > 100 µM | [10] > 100 µM | [11] > 100 µM | [12] > 100 µM | [13] > 100 µM | [14] > 100 µM | [15] > 100 µM | [16] > 100 µM | [17] > 100 µM

CSCCOC(=O)C(=[N+]=[N-])c1ccc([N+](=O)[O-])cc1
inactive: [1] > 100 µM | [2] > 100 µM | [3] > 100 µM | [4] > 100 µM | [5] > 100 µM | [6] > 100 µM | [7] > 100 µM | [8] > 100 µM | [9] > 100 µM | [10] > 100 µM | [11] > 100 µM | [12] > 100 µM | [13] > 100 µM | [14] > 100 µM | [15] > 100 µM | [16] > 100 µM

NCCCCNc1ccc2c(=O)[nH][nH]c(=O)c2c1
inactive: [1] > 100 µM | [2] > 100 µM | [3] > 100 µM | [5] > 100 µM | [6] > 100 µM | [7] > 100 µM | [8] > 100 µM | [9] > 100 µM | [10] > 100 µM | [11] > 100 µM | [12] > 100 µM | [13] > 100 µM | [14] > 100 µM | [15] > 100 µM | [16] > 100 µM | [17] > 100 µM | [18] > 100 µM

CC(C)C(Nc1c2ccccc2[n+](C)c2ccccc12)C(=O)O (configuration not stated)
inactive: [1] > 100 µM | [2] > 100 µM | [3] > 100 µM | [4] > 100 µM | [5] > 100 µM | [6] > 100 µM | [8] > 100 µM | [9] > 100 µM | [10] > 100 µM | [11] > 100 µM | [12] > 100 µM | [13] > 100 µM | [14] > 100 µM | [15] 1.3 µM | [16] > 100 µM | [17] > 100 µM

CCOC(C[C@H](O[Si](C)(C)C(C)(C)C)[C@H]1COC(=S)S1)OCC
inactive: [2] 55.8 µM | [3] 62.7 µM | [4] 32.1 µM | [6] 40.7 µM | [7] 52.6 µM | [8] 14.5 µM | [9] 52.1 µM | [10] 48.5 µM | [12] 66.5 µM | [13] 34.7 µM | [15] 23.3 µM | [16] 59.4 µM
